Tested on: c-Myc
Experiment: c-Myc reporter gene assay (Qiagen) in HEK293T cells
Format: cell-based
Conditions: treatment 16 hours, Firefly/Renilla ratio
Description: Compound 1's activity against Myc was measured as a Firefly/Renilla ratio, using the Myc reporter assay (Qiagen) in HEK293T cells after treatment with compound 1 for 16 hours. Results are expressed as a mean+/−SD (n=3). SD: standard deviation.
Select compounds described herein that were SMM assay positives were evaluated in several versions of a c-Myc reporter gene assay, including a commercial assay from Qiagen. The compounds' activities against c-Myc were measured as a Firefly/Renilla ratio, using the Myc reporter assay (Qiagen) in HEK293T cells after treatment with the compounds for 16 hours.

With `CC(C)N1C(=O)S/C(=C\c2ccc(Sc3nc4ccccc4[nH]3)s2)C1=O` [Compound 11, (Z)-5-((5-((1H-benzo[d]imidazol-2-yl)thio)thiophen-2-yl)methylene)-3-isopropylthiazolidine-2,4-dione] as the molecule, how does the IC50 (Homo sapiens, HEK-293T) read?
Its IC50 is 1.62 µM.

Which “c-Myc reporter assay IC50” value does the source give for `O=C(O)CN1C(=O)S/C(=C\c2ccc(Sc3nc4ccccc4[nH]3)o2)C1=O` [Compound 13, (Z)-2-(5-((5-((1H-benzo[d]imidazol-2-yl)thio)furan-2-yl)methylene)-2,4-dioxothiazolidin-3-yl)acetic acid] here?
Its value is “inactive”.

With `CC(C)(C)OC(=O)CN1C(=O)S/C(=C\c2ccc(Sc3nc4ccccc4[nH]3)o2)C1=O` [Compound 14, (Z)-tert-butyl 2-(5-((5-((1H-benzo[d]imidazol-2-yl)thio)furan-2-yl)methylene)-2,4-dioxothiazolidin-3-yl)acetate] as the molecule, how does the IC50 (Homo sapiens, HEK-293T, 16 h) read?
Its IC50 is 1.96 µM.

`COC(=O)CN1C(=O)S/C(=C\c2ccc(Sc3nc4ccccc4[nH]3)o2)C1=O` [Compound 15, (Z)-methyl 2-(5-((5-((1H-benzo[d]imidazol-2-yl)thio)furan-2-yl)methylene)-2,4-dioxothiazolidin-3-yl)acetate] was tested. Which IC50 (Homo sapiens, HEK-293T, 16 h) did it give?
The IC50 was 3.26 µM.

How did the IC50 (Homo sapiens, HEK-293T, 16 h) turn out when `CC(C)N1C(=O)S/C(=C\c2ccc(Sc3ncc[nH]3)o2)C1=O` [Compound 16, (Z)-5-((5-((1H-imidazol-2-yl)thio)furan-2-yl)methylene)-3-isopropylthiazolidine-2,4-dione] was run?
Its IC50 is 20.8 µM.

Which IC50 (Homo sapiens, HEK-293T, 16 h) does the source give for `CC(C)N1C(=O)S/C(=C\c2ccc(Sc3ccccn3)o2)C1=O` [Compound 17, (Z)-3-isopropyl-5-((5-(pyridin-2-ylthio)furan-2-yl)methylene)thiazolidine-2,4-dione] here?
Its IC50 is 7.67 µM.

How did the IC50 (Homo sapiens, HEK-293T, 16 h) turn out when `CC(C)N1C(=O)S/C(=C\c2ccc(Sc3nc4ccccc4n3C)o2)C1=O` [Compound 18, (Z)-3-isopropyl-5-((5-((1-methyl-1H-benzo[d]imidazol-2-yl)thio)furan-2-yl)methylene)thiazolidine-2,4-dione] was run?
The IC50 was 1.67 µM.

With `NCCCN1C(=O)S/C(=C\c2ccc(Sc3nc4ccccc4[nH]3)o2)C1=O` [Compound 19, (Z)-5-((5-((1H-benzo[d]imidazol-2-yl)thio)furan-2-yl)methylene)-3-(3-aminopropyl)thiazolidine-2,4-dione 2,2,2-trifluoroacetate] as the molecule, how does the IC50 (Homo sapiens, HEK-293T, 16 h) read?
Its IC50 is 7.3 µM.

And the IC50?
The IC50 was 6.52 µM.

How did the IC50 (Homo sapiens, HEK-293T, 16 h) turn out when `O=C(NCCCN1C(=O)S/C(=C\c2ccc(Sc3nc4ccccc4[nH]3)o2)C1=O)Nc1ccccc1` [Compound 20, (Z)-1-(3-(5-((5-((1H-benzo[d]imidazol-2-yl)thio)furan-2-yl)methylene)-2,4-dioxothiazolidin-3-yl)propyl)-3-phenylurea] was run?
Its IC50 is 1.22 µM.

For `CCNC(=O)NCCCN1C(=O)S/C(=C\c2ccc(Sc3nc4ccccc4[nH]3)o2)C1=O` [Compound 21], which IC50 (Homo sapiens, HEK-293T, 16 h) is on record?
The IC50 was 6.77 µM.

How did the IC50 (Homo sapiens, HEK-293T, 16 h) turn out when `CCC(C)N1C(=O)S/C(=C\c2ccc(Sc3nc4ccccc4[nH]3)o2)C1=O` (stereo not drawn) [Compound 31] was run?
Its IC50 is 2.22 µM.

How did the IC50 (Homo sapiens, HEK-293T, 16 h) turn out when `COC(=O)C(C)N1C(=O)S/C(=C\c2ccc(Sc3nc4ccccc4[nH]3)o2)C1=O` (stereo not drawn) [Compound 32] was run?
Its IC50 is 6.24 µM.

Which IC50 (Homo sapiens, HEK-293T, 16 h) does the source give for `O=C(CN1C(=O)S/C(=C\c2ccc(Sc3nc4ccccc4[nH]3)o2)C1=O)N1CCN(c2ccccc2)CC1` [Compound 34] here?
The IC50 was 7.01 µM.

How did the IC50 (Homo sapiens, HEK-293T, 16 h) turn out when `O=C1S/C(=C\c2ccc(Sc3nc4ccccc4[nH]3)o2)C(=O)N1c1ccccc1` [Compound 35] was run?
Its IC50 is 11.9 µM.

`CC(/C=C1\SC(=O)N(C(C)C)C1=O)=C\c1ccccc1` [Compound 37] was tested. Which IC50 (Homo sapiens, HEK-293T, 16 h) did it give?
Its IC50 is over 100 µM.

How did the IC50 (Homo sapiens, HEK-293T, 16 h) turn out when `COC(=O)C(C)N1C(=O)S/C(=C\C=C\c2ccco2)C1=O` (stereo not drawn) [Compound 38] was run?
The IC50 was over 100 µM.

How did the IC50 (Homo sapiens, HEK-293T, 16 h) turn out when `Cc1ccc(Sc2ccc(/C=C3\SC(=O)N(C(C)C)C3=O)o2)cc1` [Compound 39] was run?
The IC50 was over 100 µM.

With `O=C(O)c1ccc(Sc2nc3ccccc3[nH]2)o1` [Compound 41, 5-((1H-benzo[d]imidazol-2-yl)thio)furan-2-carboxylic acid] as the molecule, how does the “c-Myc reporter assay IC50” value read?
Its value is “non active”.

How did the IC50 (Homo sapiens, HEK-293T, 16 h) turn out when `O=C(Nc1ccccc1)c1ccc(Sc2nc3ccccc3[nH]2)o1` [Compound 42, 5-((1H-benzo[d]imidazol-2-yl)thio)-N-phenylfuran-2-carboxamide] was run?
Its IC50 is 3.32 µM.

With `CC(C)NC(=O)c1ccc(Sc2nc3ccccc3[nH]2)o1` [Compound 43, 5-((1H-benzo[d]imidazol-2-yl)thio)-N-isopropylfuran-2-carboxamide] as the molecule, how does the IC50 (Homo sapiens, HEK-293T, 16 h) read?
The IC50 was 7.9 µM.

How did the “c-Myc reporter assay IC50” value turn out when `O=C(c1ccc(Sc2nc3ccccc3[nH]2)o1)N1CCOCC1` [Compound 44, (5-((1H-benzo[d]imidazol-2-yl)thio)furan-2-yl)(morpholino)methanone] was run?
The value was “non active”.

How did the IC50 (Homo sapiens, HEK-293T, 16 h) turn out when `c1ccc(NCc2ccc(Sc3nc4ccccc4[nH]3)o2)cc1` [Compound 45, N-((5-((1H-benzo[d]imidazol-2-yl)thio)furan-2-yl)methyl)aniline] was run?
The IC50 was 4.66 µM.

How did the IC50 (Homo sapiens, HEK-293T, 16 h) turn out when `CC(C)NCc1ccc(Sc2nc3ccccc3[nH]2)o1` [Compound 46] was run?
Its IC50 is 57.5 µM.

For `c1ccc2[nH]c(Sc3ccc(CN4CCOCC4)o3)nc2c1` [Compound 47, 4-((5-((1H-benzo[d]imidazol-2-yl)thio)furan-2-yl)methyl)morpholine], which IC50 (Homo sapiens, HEK-293T, 16 h) is on record?
Its IC50 is 32.9 µM.

`CCN1CCN(Cc2ccc(Sc3nc4ccccc4[nH]3)o2)CC1` [Compound 48, 2-((5-((4-ethylpiperazin-1-yl)methyl)furan-2-yl)thio)-1H-benzo[d]imidazole] was tested. Which IC50 (Homo sapiens, HEK-293T, 16 h) did it give?
Its IC50 is 10.2 µM.

`CN(C)Cc1ccc(Sc2nc3ccccc3[nH]2)o1` [Compound 49, 1-(5-((1H-benzo[d]imidazol-2-yl)thio)furan-2-yl)-N,N-dimethylmethanamine] was tested. Which IC50 (Homo sapiens, HEK-293T, 16 h) did it give?
The IC50 was 59.4 µM.

Which IC50 (Homo sapiens, HEK-293T, 16 h) does the source give for `COC(=O)CNCc1ccc(Sc2nc3ccccc3[nH]2)o1` [Compound 50, Methyl 2-(((5-((1H-benzo[d]imidazol-2-yl)thio)furan-2-yl)methyl)amino)acetate] here?
The IC50 was 75.9 µM.

With `COC(=O)c1ccc(Sc2nc3ccccc3[nH]2)o1` [Compound 51, Methyl 5-((1H-benzo[d]imidazol-2-yl)thio)furan-2-carboxylate] as the molecule, how does the “c-Myc reporter assay IC50” value read?
Its value is “non active”.

How did the IC50 (Homo sapiens, HEK-293T) turn out when `CN1C(=O)C(=Cc2ccc(Sc3nc4ccccc4[nH]3)o2)C(=O)N(C)C1=O` [Compound 53, 5-((5-((1H-benzo[d]imidazol-2-yl)thio)furan-2-yl)methylene)-1,3-dimethylpyrimidine-2,4,6(1H,3H,5H)-trione] was run?
The IC50 was 26.8 µM.

How did the “c-Myc reporter assay IC50” value turn out when `O=C1NC(=O)C(=Cc2ccc(Sc3nc4ccccc4[nH]3)o2)C(=O)N1` [Compound 54, 5-((5-((1H-benzo[d]imidazol-2-yl)thio)furan-2-yl)methylene)pyrimidine-2,4,6(1H,3H,5H)-trione] was run?
The value was “non active”.

`CC(C)N1C(=O)S/C(=C\c2ccc(Sc3nc4ccc(OC(F)(F)F)cc4[nH]3)o2)C1=O` [Compound 56, (Z)-3-isopropyl-5-((5-((6-(trifluoromethoxy)-1H-benzo[d]imidazol-2-yl)thio)furan-2-yl)methylene)thiazolidine-2,4-dione] was tested. Which IC50 (Homo sapiens, HEK-293T, 16 h) did it give?
Its IC50 is 0.44 µM.

For `CC(C)N1C(=O)S/C(=C\c2ccc(Sc3nc4ccc([N+](=O)[O-])cc4[nH]3)o2)C1=O` [Compound 57, (Z)-3-isopropyl-5-((5-((6-nitro-1H-benzo[d]imidazol-2-yl)thio)furan-2-yl)methylene)thiazolidine-2,4-dione], which IC50 (Homo sapiens, HEK-293T, 16 h) is on record?
The IC50 was 0.36 µM.

For `CC(=O)c1ccc2nc(Sc3ccc(/C=C4\SC(=O)N(C(C)C)C4=O)o3)[nH]c2c1` [Compound 58, (Z)-5-((5-((6-acetyl-H-benzo[d]imidazol-2-yl)thio)furan-2-yl)methylene)-3-isopropylthiazolidine-2,4-dione], which IC50 (Homo sapiens, HEK-293T, 16 h) is on record?
Its IC50 is 0.26 µM.

How did the IC50 (Homo sapiens, HEK-293T, 16 h) turn out when `CC(C)N1C(=O)S/C(=C\c2ccc(Sc3nc4ccc(N)cc4[nH]3)o2)C1=O` [Compound 60, (Z)-5-((5-((6-amino-1H-benzo[d]imidazol-2-yl)thio)furan-2-yl)methylene)-3-isopropylthiazolidine-2,4-dione] was run?
Its IC50 is 4.56 µM.

For `CC(C)N1C(=O)S/C(=C\c2ccc(Sc3nc4ccc(NC(=O)c5ccccc5)cc4[nH]3)o2)C1=O` [Compound 61, (Z)—N-(2-((5-((3-isopropyl-2,4-dioxothiazolidin-5-ylidene)methyl)furan-2-yl)thio)-1H-benzo[d]imidazol-6-yl)benzamide], which IC50 (Homo sapiens, HEK-293T, 16 h) is on record?
Its IC50 is 0.4 µM.

With `CC(=O)Nc1ccc2nc(Sc3ccc(/C=C4\SC(=O)N(C(C)C)C4=O)o3)[nH]c2c1` [Compound 62, (Z)—N-(2-((5-((3-isopropyl-2,4-dioxothiazolidin-5-ylidene)methyl)furan-2-yl)thio)-1H-benzo[d]imidazol-6-yl)acetamide] as the molecule, how does the IC50 (Homo sapiens, HEK-293T, 16 h) read?
Its IC50 is 0.93 µM.

For `COC(=O)c1ccc2nc(Sc3ccc(/C=C4\SC(=O)N(C(C)C)C4=O)o3)[nH]c2c1` [Compound 63, (Z)-methyl 2-((5-((3-isopropyl-2,4-dioxothiazolidin-5-ylidene)methyl)furan-2-yl)thio)-1H-benzo[d]imidazole-6-carboxylate], which IC50 (Homo sapiens, HEK-293T, 16 h) is on record?
Its IC50 is 1.49 µM.

Which IC50 (Homo sapiens, HEK-293T, 16 h) does the source give for `CC(C)N1C(=O)S/C(=C\c2ccc(Sc3nc4ccccc4[nH]3)cc2)C1=O` [Compound 64, (Z)-5-(4-((1H-benzo[d]imidazol-2-yl)thio)benzylidene)-3-isopropylthiazolidine-2,4-dione] here?
The IC50 was 1.82 µM.

For `CC(C)N1C(=O)S/C(=C\c2cccc(Oc3nc4ccccc4[nH]3)c2)C1=O` [Compound 65, (Z)-5-(3-((1H-benzo[d]imidazol-2-yl)oxy)benzylidene)-3-isopropylthiazolidine-2,4-dione], which IC50 (Homo sapiens, HEK-293T, 16 h) is on record?
The IC50 was 0.99 µM.

`O=C1CSC(=O)N1Cc1ccc(Sc2nc3ccccc3[nH]2)o1` [Compound 67, 3-((5-((1H-benzo[d]imidazol-2-yl)thio)furan-2-yl)methyl)thiazolidine-2,4-dione] was tested. Which IC50 (Homo sapiens, HEK-293T, 16 h) did it give?
Its IC50 is 30 µM.

Which IC50 (Homo sapiens, HEK-293T, 16 h) does the source give for `CC(C)N1C(=O)S/C(=C\c2cc3ccc(Sc4nc5ccccc5[nH]4)cc3o2)C1=O` [Compound 68, (Z)-5-((6-((1H-benzo[d]imidazol-2-yl)thio)benzofuran-2-yl)methylene)-3-isopropylthiazolidine-2,4-dione] here?
Its IC50 is 0.54 µM.
